Measured values taken from the supplement of paper PMC10307832.

Columns and labels:
Assay in all cases: relative viability (nuclei count vs DMSO), 5 days (fraction); higher = more cells survive
[1] = compound: CC(C)N(CCCNC(=O)Nc1ccc(C(C)(C)C)cc1)C[C@H]1O[C@@H](n2ccc3c(N)ncnc32)[C@H](O)[C@@H]1O + CCNC(=O)c1noc(-c2cc(C(C)C)c(O)cc2O)c1-c1ccc(CN2CCOCC2)cc1 [Luminespib] (partner 0.01 µM)
In short: (§1)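 One day after seeding in 1536-well plates, lung cancer cell lines were dosed by pin tool. Dosing was either single-drug or a fixed anchor-drug dose plus five library-drug doses (not always all listed) in √10 steps. After 5 days, nuclei were stained in one fix-and-stain step and counted on 4× images, and relative viability is the nuclei count of treated wells over that of vehicle wells, given as the median of duplicate plates.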

[2] = compound: CC(C)N(CCCNC(=O)Nc1ccc(C(C)(C)C)cc1)C[C@H]1O[C@@H](n2ccc3c(N)ncnc32)[C@H](O)[C@@H]1O + O=C(c1cc(Cc2n[nH]c(=O)c3ccccc23)ccc1F)N1CCN(C(=O)C2CC2)CC1 [Olaparib] (partner 8 µM)
In short: as §1

[3] = compound: CC(C)=CC[C@@H](O)C1=CC(=O)c2c(O)ccc(O)c2C1=O [Shikonin] + O=C(CCCCCCC(=O)Nc1ccccc1)NO [Vorinostat] (partner 1 µM)
In short: as §1

[4] = compound: CC(C)N(CCCNC(=O)Nc1ccc(C(C)(C)C)cc1)C[C@H]1O[C@@H](n2ccc3c(N)ncnc32)[C@H](O)[C@@H]1O + C[C@]1(O)C[C@@H](c2nc(-c3ccc4ccc(-c5ccccc5)nc4c3)c3c(N)nccn32)C1 [Linsitinib] (partner 1 µM)
In short: as §1

Cell Line | relative viability ([1]; first compound 0.08 µM) | relative viability ([1]; first compound 0.253 µM) | relative viability ([1]; first compound 0.8 µM) | relative viability ([1]; first compound 2.53 µM) | relative viability ([1]; first compound 8 µM) | relative viability ([2]; first compound 0.08 µM) | relative viability ([2]; first compound 0.253 µM) | relative viability ([2]; first compound 0.8 µM) | relative viability ([2]; first compound 2.53 µM) | relative viability ([2]; first compound 8 µM) | relative viability ([3]; first compound 0.01 µM) | relative viability ([3]; first compound 0.1 µM) | relative viability ([3]; first compound 0.3162 µM) | relative viability ([3]; first compound 1 µM) | relative viability ([4]; first compound 0.08 µM) | relative viability ([4]; first compound 0.253 µM) | relative viability ([4]; first compound 0.8 µM) | relative viability ([4]; first compound 2.53 µM) | relative viability ([4]; first compound 8 µM)
NCI-H661 | 0.936 | 0.966 | 0.947 | 0.975 | 0.957 | 0.85 | 0.758 | 0.795 | 0.786 | 0.729 | 0.837 | 0.833 | 0.812 | 0.736 | 0.473 | 0.553 | 0.585 | 0.567 | 0.57
NCI-H2085 | 0.434 | 0.506 | 0.441 | 0.414 | 0.389 | 0.749 | 0.834 | 0.873 | 0.867 | 0.763 | 0.78 | 0.917 | 0.775 | 0.824 | 0.912 | 0.949 | 0.805 | 0.958 | 0.943
NCI-H2347 | 0.578 | 0.321 | 0.245 | 0.371 | 0.555 | 0.525 | 0.593 | 0.534 | 0.655 | 0.548 | 0.567 | 0.529 | 0.6 | 0.577 | 1 | 0.95 | 0.868 | 1.02 | 0.97
NCI-H1944 | 0.716 | 0.683 | 0.819 | 0.709 | 0.766 | 0.416 | 0.409 | 0.413 | 0.41 | 0.403 | 0.521 | 0.521 | 0.673 | 0.55 | 1.09 | 1.15 | 1.17 | 1.22 | 1.16
NCI-H1793 | 0.18 |  | 0.292 | 0.171 | 0.203 | 0.808 |  | 0.864 | 0.848 | 0.739 | 0.752 | 0.974 | 0.68 | 0.973 | 0.818 |  | 0.747 | 0.86 | 0.784
NCI-H647 | 0.267 | 0.461 |  | 0.241 | 0.245 | 0.439 | 0.507 | 0.508 | 0.587 | 0.543 | 0.54 | 0.624 | 0.72 | 0.513 | 1.12 |  | 1.17 | 1.13 | 1.03
NCI-H596 | 1.06 |  | 0.923 | 0.955 | 1.12 | 0.667 | 0.67 | 0.531 | 0.704 | 0.723 | 0.45 | 0.616 | 0.612 | 0.774 | 0.991 | 0.926 | 1.02 | 1.08 | 1.21
EKVX | 0.758 | 0.847 | 0.838 | 0.909 | 0.846 | 0.818 | 0.83 | 0.67 | 0.803 | 0.752 | 0.634 | 0.711 | 0.831 | 0.925 | 0.941 | 0.972 | 0.914 | 0.943 | 0.927
NCI-H358 | 0.441 | 0.235 | 0.384 | 0.0174 | 0.307 | 0.593 | 0.605 | 0.565 | 0.562 | 0.542 | 0.999 | 0.67 | 0.856 | 0.573 | 0.775 | 0.814 | 0.786 | 0.823 | 0.668
EPLC-272H | 0.0863 | 0.265 | 0.268 | 0.46 | 0.232 | 0.669 | 0.85 | 0.764 | 0.734 | 0.859 | 0.378 | 0.353 | 0.536 | 0.377 | 1.12 | 1.09 | 1.05 | 1.03 | 1.05
NCI-H1395 | 0.632 | 0.734 | 0.571 | 0.884 | 0.798 | 0.496 | 0.443 | 0.405 | 0.464 | 0.438 | 0.675 | 0.705 | 0.695 | 0.938 | 1.09 | 0.881 |  | 1.07 | 0.987
NCI-H2228 | 0.218 | 0.191 | 0.178 | 0.144 | 0.18 | 0.879 | 0.712 | 0.427 | 0.601 | 0.615 | 0.807 | 0.507 | 0.53 | 0.785 | 0.817 |  | 0.665 | 0.625 | 0.554
LXF-289 | 0.731 | 0.679 | 0.65 | 0.669 | 0.71 | 1.02 | 1.08 | 1.1 | 1.1 | 0.991 | 0.787 | 0.764 | 0.862 | 0.79 | 0.994 | 1.03 | 0.951 | 1.01 | 0.928
NCI-H2023 | 0.694 | 0.771 | 0.807 | 0.858 | 0.621 | 0.491 | 0.458 | 0.458 | 0.446 | 0.43 | 0.645 | 0.772 | 0.703 | 0.736 | 0.661 | 0.734 | 0.72 | 0.709 | 0.652
NCI-H3122 | 0.0976 | 0.0883 | 0.117 | 0.0934 | 0.102 | 0.684 | 0.632 | 0.536 | 0.663 | 0.512 | 1.07 | 0.986 | 1.29 | 0.944 | 1.03 | 0.989 | 0.919 | 1.01 | 0.938
NCI-H1755 | 0.553 | 0.53 | 0.367 | 0.43 | 0.349 | 0.892 | 0.902 | 0.861 | 0.828 | 0.793 | 0.637 | 0.807 | 0.888 | 0.665 | 1.01 | 0.997 | 0.894 | 0.916 | 0.836
LOU-NH91 | 0.381 | 0.328 | 0.283 | 0.333 | 0.368 | 0.886 | 0.86 |  | 0.984 | 0.899 | 0.921 | 1.02 | 1.04 | 0.957 | 0.944 | 0.873 |  | 0.998 | 0.918
